From PMC8102410, “Coordinate regulation of systemic and kidney tryptophan metabolism by the drug transporters OAT1 and OAT3” (The Journal of Biological Chemistry, 2021) come the findings set out here.

Format in all cases: cell-based
For assay [1], the target named is T1, OAT3 (Homo sapiens, UniProt Q8TCC7).
T1 construct: gene SLC22A8
T1 sequence (Q8TCC7 1-542): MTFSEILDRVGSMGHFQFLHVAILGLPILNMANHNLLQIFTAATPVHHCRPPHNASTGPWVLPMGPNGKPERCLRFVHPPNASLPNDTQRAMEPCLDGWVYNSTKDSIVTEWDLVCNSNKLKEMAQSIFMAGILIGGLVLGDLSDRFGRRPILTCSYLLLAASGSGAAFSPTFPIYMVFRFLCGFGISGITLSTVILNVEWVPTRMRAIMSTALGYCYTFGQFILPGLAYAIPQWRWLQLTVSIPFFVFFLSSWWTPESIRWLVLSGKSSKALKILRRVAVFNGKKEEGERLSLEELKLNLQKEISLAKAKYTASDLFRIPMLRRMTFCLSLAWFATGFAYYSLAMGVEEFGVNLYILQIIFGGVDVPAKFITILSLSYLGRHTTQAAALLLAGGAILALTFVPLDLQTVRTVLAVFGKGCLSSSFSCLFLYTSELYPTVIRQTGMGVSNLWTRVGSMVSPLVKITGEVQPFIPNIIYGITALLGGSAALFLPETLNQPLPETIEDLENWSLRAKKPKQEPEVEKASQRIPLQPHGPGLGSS
In words: inhibition of 6-carboxyfluorescein uptake in HEK-293 cells stably overexpressing human OAT3 (data not shown).

In assay [2] the target is T2, OAT1 (Homo sapiens, UniProt Q4U2R8).
T2 construct: gene SLC22A6
T2 sequence (Q4U2R8 1-563): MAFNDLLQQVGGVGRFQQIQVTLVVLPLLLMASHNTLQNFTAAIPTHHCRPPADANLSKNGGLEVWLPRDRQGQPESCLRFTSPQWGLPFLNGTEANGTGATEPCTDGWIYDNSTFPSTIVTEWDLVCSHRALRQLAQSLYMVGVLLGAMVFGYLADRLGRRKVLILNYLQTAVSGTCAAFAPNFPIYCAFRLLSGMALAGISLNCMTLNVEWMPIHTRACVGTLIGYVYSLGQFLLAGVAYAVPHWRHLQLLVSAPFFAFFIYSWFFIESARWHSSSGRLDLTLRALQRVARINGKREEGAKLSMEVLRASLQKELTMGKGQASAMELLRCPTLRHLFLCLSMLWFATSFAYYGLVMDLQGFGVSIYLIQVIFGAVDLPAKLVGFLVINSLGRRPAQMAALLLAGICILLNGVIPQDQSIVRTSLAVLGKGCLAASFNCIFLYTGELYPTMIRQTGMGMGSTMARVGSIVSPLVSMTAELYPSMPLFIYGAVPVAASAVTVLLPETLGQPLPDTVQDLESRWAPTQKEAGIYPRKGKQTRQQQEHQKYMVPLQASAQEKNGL
Put plainly: inhibition of 6-carboxyfluorescein uptake in HEK-293 cells stably overexpressing human OAT1.

The target in assay [3] is T1, OAT3. In words: inhibition of 6-carboxyfluorescein uptake in HEK-293 cells stably overexpressing human OAT3.

A word on the IC50: it is the concentration at which inhibition is half-maximal. High values mean lower potency, low ones higher potency. `NCCc1c[nH]c2ccc(O)cc12` [serotonin] returned a half-inhibitory concentration (IC50) in assay [1] of 288 ± 167 µM.

For `O=C(O)[C@@H](O)Cc1c[nH]c2ccccc12` [ILA, indolelactic acid], the IC50 is 229 ± 74.6 µM in assay [2] and 74.5 ± 23.3 µM in assay [3].
